Test results as given in patent US12642771B2, “Compositions comprising PGI2-receptor agonists and processes for the preparation thereof” (Arena Pharmaceuticals, Inc., priority 2017, dated 2026).

Experiments:
[1] = Example 7A: open-label single-dose pharmacokinetic study, modified-release tablet vs immediate-release capsule, fasted healthy subjects; assay type: in vivo, human
Procedure: A. An open-label, fixed sequence, non-randomized study in two cohorts of healthy male and non-pregnant, non-lactating female subjects was conducted. Two cohorts with twelve subjects in each were enrolled to ensure data in ten evaluable subjects per cohort.
Each subject in Cohort 1 received each of the following regimens, in the fasted state, in a sequential manner over four treatment periods: • Regimen A (0.03 mg immediate-release Compound 1): 1×0.03 mg Compound 1 immediate-release capsule. • Regimen B (0.06 mg modified-release Compound 1): 1×0.06 mg Compound 1 modified-release tablet as disclosed herein. • Regimen C (0.12 mg modified-release Compound 1): 2×0.06 mg Compound 1 modified-release tablets as disclosed herein. • Regimen D (0.18 mg modified-release Compound 1) 3×0.06 mg Compound 1 modified-release tablets as disclosed herein.
Subjects received each regimen in the morning of Day 1, following an overnight fast of a minimum of 8 hours. PK samples were taken from subjects at 72 hours post-dose. There was a minimum washout period of 7 days between each administration of investigational medicinal product (IMP) (i.e., selexipag film-coated tablet(s), Compound 1 immediate-release capsule(s), and/or Compound 1 modified-release tablet(s)).
Venous blood samples were withdrawn at regular time intervals. Plasma concentration data for Compound 1 and the selexipag parent and active metabolite were analyzed using appropriate non-compartmental techniques to obtain estimates of one or more of the following parameters:
One or more of the above pharmacokinetic parameters were determined at one or more of the following time points: pre-dose and (referring to hours after administration): 0.5, 1, 1.5, 2, 3, 4, 5, 6, 8, 10, 12, 16, 20, 24, 36, 48, and 72 hours.

[2] = Release (dissolution) profile of capsules, USP Apparatus 2 (paddle) at 50 rpm, 500 mL aqueous sodium phosphate 0.05 M, pH 6.8; assay type: physicochemical; details: for Release rate (percentage of Compound 1 released): Table 3b, capsule 0.04 mg Compound 1, Poloxamer 188:food grade GMS 50:50
Source text: USP Apparatus 2 (Paddle Apparatus) is described, for example, in the United States Pharmacopeial Convention, Feb. 1, 2012, Chapter <711> (“Dissolution”), incorporated by reference herein in its entirety. See http://www.usp.org/sites/default/files/usp_pdf/EN/USPNF/revisions/m99470-gc_711.pdf. The assembly from Apparatus 1 is used, except that a paddle formed from a blade and a shaft is used as the stirring element. The shaft is positioned so that its axis is not more than 2 mm from the vertical axis of the vessel at any point and rotates smoothly without significant wobble that could affect the results. The vertical center line of the blade passes through the axis of the shaft so that the bottom of the blade is flush with the bottom of the shaft. A distance of 25±2 mm between the bottom of the blade and the inside bottom of the vessel is maintained during the test. The metallic or suitably inert, rigid blade and shaft comprise a single entity. A suitable two-part detachable design may be used provided the assembly remains firmly engaged during the test. The paddle blade and shaft may be coated with a suitable coating so as to make them inert. The dosage unit is allowed to sink to the bottom of the vessel before rotation of the blade is started. A small, loose piece of nonreactive material, such as not more than a few turns of wire helix, may be attached to dosage units that would otherwise float. Other validated sinker devices may be used.
Unless otherwise specified, the release profiles for capsules were measured using USP Apparatus 2 (paddle).
All release profiles disclosed in Tables 3c-3p were measured with USP Apparatus 2 (paddle) at 50 rpm in 500 mL of aqueous sodium phosphate at a concentration of 0.05 M (pH=6.8). The values in a given table relate to capsules obtained from the same batch. Values shown represent mean values over a number of dissolution tests (“n” in each table) in each case.

[3] = modified-release compared to immediate-release formulation
[4] = modified-release tablet (compared with immediate-release capsule)

## O=C(O)COC[C@H]1CC[C@H](COC(=O)N(c2ccccc2)c2ccc(Cl)cc2)CC1 [Compound 1, 2-(((1r,4r)-4-(((4-chlorophenyl)(phenyl)carbamoyloxy)methyl)cyclohexyl)methoxy)acetic acid]
[1]; 0.06, 0.12 and 0.18 mg modified-release tablet vs immediate-release capsule
  Relative bioavailability based on individual dose-adjusted Cmax: statistically significantly lower
[1]; 0.06 and 0.12 mg modified-release tablet vs immediate-release capsule
  Relative bioavailability based on individual dose-adjusted ratios of AUC(0-last): statistically significantly lower
[1]; [3]
  Dose-adjusted peak plasma exposure (Cmax/D), geometric mean ratio: 28.7-41.2%
  Dose-adjusted total plasma exposure (AUC/D), geometric mean ratio: 63.3-97.9%
[1]; [4]
  Cmax: reduced the Cmax
  Tmax: increased Tmax
  total plasma concentrations: substantially maintaining similar total plasma concentrations
[1]; modified-release tablet compared to immediate release-formulation
  Plasma concentrations at 24 hours post-dose: higher
[1]; oral modified-release tablet formulation
  Systemic exposure (Cmax and AUC), dose proportionality: increased in a slightly higher than dose-proportional manner
[2]; 0.04 mg Compound 1 in Gelucire 50/13, storage at 40° C. and 75% RH for two weeks (FIG. 5)
  change of release rate after storage: rapid increase in release rate
[2]; 1 wk storage (40° C.), 30 min
  Release rate (percentage of Compound 1 released): 11.1%
[2]; 1 wk storage (40° C.), 60 min
  Release rate (percentage of Compound 1 released): 22.6%
[2]; 1 wk storage (40° C.), 120 min
  Release rate (percentage of Compound 1 released): 40.1%
[2]; 1 wk storage (40° C.), 180 min
  Release rate (percentage of Compound 1 released): 59.7%
[2]; 1 wk storage (40° C.), 240 min
  Release rate (percentage of Compound 1 released): 71.8%
[2]; 1 wk storage (40° C.), 360 min
  Release rate (percentage of Compound 1 released): 88.4%
[2]; 1 wk storage (40° C.), 480 min
  Release rate (percentage of Compound 1 released): 92.2%
[2]; 1 wk storage (40° C.), 600 min
  Release rate (percentage of Compound 1 released): 96.7%
[2]; 1 wk storage (40° C.), 720 min
  Release rate (percentage of Compound 1 released): 95.3%
[2]; 1 wk storage (40° C.), 735 min
  Release rate (percentage of Compound 1 released): 96.1%
[2]; 2 wks storage (40° C.), 30 min
  Release rate (percentage of Compound 1 released): 10.8%
[2]; 2 wks storage (40° C.), 60 min
  Release rate (percentage of Compound 1 released): 18.3%
[2]; 2 wks storage (40° C.), 120 min
  Release rate (percentage of Compound 1 released): 36.8%
[2]; 2 wks storage (40° C.), 180 min
  Release rate (percentage of Compound 1 released): 52.9%
[2]; 2 wks storage (40° C.), 240 min
  Release rate (percentage of Compound 1 released): 67.4%
[2]; 2 wks storage (40° C.), 360 min
  Release rate (percentage of Compound 1 released): 83.3%
[2]; 2 wks storage (40° C.), 480 min
  Release rate (percentage of Compound 1 released): 90.3%
[2]; 2 wks storage (40° C.), 600 min
  Release rate (percentage of Compound 1 released): 93.8%
[2]; 2 wks storage (40° C.), 720 min
  Release rate (percentage of Compound 1 released): 93.7%
[2]; 2 wks storage (40° C.), 735 min
  Release rate (percentage of Compound 1 released): 94.3%
[2]; 4 wks storage (40° C.), 30 min
  Release rate (percentage of Compound 1 released): 7.3%
[2]; 4 wks storage (40° C.), 60 min
  Release rate (percentage of Compound 1 released): 17.7%
[2]; 4 wks storage (40° C.), 120 min
  Release rate (percentage of Compound 1 released): 37.4%
[2]; 4 wks storage (40° C.), 180 min
  Release rate (percentage of Compound 1 released): 54.6%
